What was measured:
SARS-CoV-2 [1] = assay: microbe, parasite or virus in culture; format: functional, organism-based, Chlorocebus sabaeus, Vero C1008; conditions: Severe acute respiratory syndrome coronavirus 2, Vero C1008, 48 h
in vitro = conditions: chlorocebus sabaeus
SARS-CoV-2 [2] = assay: microbe, parasite or virus in culture; conditions: Severe acute respiratory syndrome coronavirus 2, Vero C1008, 48 h
[3] = Vero E6 (Vero C1008) cells, CC50
[4] = Vero E6 (Vero C1008) cells, pCC50

| SMILES | IC50 (SARS-CoV-2 [1]; read-out: IC50) | IC50 (SARS-CoV-2 [1]; read-out: pIC50 (converted)) | CC50 at 48 h (in vitro; [3]) | CC50 at 48 h (in vitro; [4]) | IC50 (SARS-CoV-2 [2]) | IC50 (SARS-CoV-2 [2]; read-out: pIC50 (converted)) | CC50 at 48 h (in vitro; vero c1008, CC50) | CC50 at 48 h (in vitro; vero c1008, pCC50) |
| --- | --- | --- | --- | --- | --- | --- | --- | --- |
| CC(=O)c1ccc2c(c1)N(CCCN1CCC(CCO)CC1)c1ccccc1S2 [PIPERACETAZINE] | > 12.6 µM | > 12.6 µM | 12.2 µM | 12 µM | 16.2 µM | 16.2 µM |  |  |
| COc1cc(/C=C/C(=O)N2CCC=CC2=O)cc(OC)c1OC [PIPLARTINE] | > 50.1 µM | > 50.1 µM | 9.55 µM | 9.55 µM | > 50.1 µM | > 50.1 µM |  |  |
| CN(C)S(=O)(=O)c1ccc2c(c1)N(CCCN1CCC(CCO)CC1)c1ccccc1S2 [PIPOTIAZINE] | > 100 µM | > 100 µM |  | 7.24 µM | 13.8 µM | 13.8 µM |  |  |
| Cc1ccc(C(=O)Nc2ccc(CN3CCN(C)CC3)c(C(F)(F)F)c2)cc1C#Cc1cnc2cccnn12 [PONATINIB] | > 100 µM | > 100 µM | 0.989 µM | 0.977 µM | > 100 µM | > 100 µM |  |  |
| CC[C@@H]([C@H](C)O)n1ncn(-c2ccc(N3CCN(c4ccc(OC[C@@H]5CO[C@@](Cn6cncn6)(c6ccc(F)cc6F)C5)cc4)CC3)cc2)c1=O [POSACONAZOLE] | > 100 µM | > 100 µM | > 100 µM | > 100 µM | > 100 µM | > 100 µM |  |  |
| CCCC(C(=O)OCCN(CC)CC)(c1ccccc1)c1ccccc1 [PROADIFEN] | > 100 µM | > 100 µM | 24 µM | 24 µM | 5.13 µM | 5.13 µM |  |  |
| Nc1ccc2cc3ccc(N)cc3nc2c1 [PROFLAVINE] | > 25.1 µM | > 25.1 µM | ~6.61 µM | ~6.61 µM | ~15 µM | ~14.8 µM |  |  |
| CN(C)CCCN1c2ccccc2Sc2ccccc21 [PROMAZINE] | > 100 µM | > 100 µM | 25.7 µM | 25.7 µM | 16.2 µM | 16.2 µM |  |  |
| CC(CN1c2ccccc2Sc2ccccc21)N(C)C (stereo unspecified) [PROMETHAZINE] | > 100 µM | > 100 µM | 33.1 µM | 33.1 µM | 21.9 µM | 21.9 µM |  |  |
| CCCOc1ccc(C(=O)CCN2CCCCC2)cc1 [PROPIPOCAINE] | > 100 µM | > 100 µM | 31.6 µM | 31.6 µM | > 100 µM | > 100 µM |  |  |
| CNCCCC1c2ccccc2C=Cc2ccccc21 [PROTRIPTYLINE] | > 100 µM | > 100 µM |  |  | > 100 µM | > 100 µM | 26.3 µM | 26.3 µM |
| CCCCCCC(C)(C)c1cc(O)c([C@H]2CC(=O)[C@H]3C[C@@H]2C3(C)C)c(OC(=O)/C=C/C(=O)O)c1 [PRS-211375] | > 50.1 µM | > 50.1 µM | 7.67 µM | 7.59 µM | > 100 µM | > 100 µM |  |  |
| COC(=O)[C@H]1[C@H]2C[C@@H]3c4[nH]c5cc(OC)ccc5c4CCN3C[C@H]2C[C@@H](OC(=O)c2cc(OC)c(OC)c(OC)c2)[C@@H]1OC [RESERPINE] | > 50.1 µM | > 50.1 µM | ~11 µM | ~11 µM | > 25.1 µM | > 25.1 µM |  |  |
| Cc1nc(Nc2ccc(F)cc2)nc(N2CCc3ccccc3C2C)c1C (stereo unspecified) [REVAPRAZAN] | 10.5 µM | 10.5 µM | 11.5 µM | 11.5 µM | > 100 µM | > 100 µM |  |  |
| CN(C)C(=O)c1cc2cnc(Nc3ccc(N4CCNCC4)cn3)nc2n1C1CCCC1 [RIBOCICLIB] | > 100 µM | > 100 µM | 38.9 µM | 38.9 µM | > 100 µM | > 100 µM |  |  |
| Cc1cc2nc3c(=O)[nH]c(=O)nc-3n(C[C@H](O)[C@H](O)[C@H](O)CO)c2cc1C [RIBOFLAVIN] | > 50.1 µM | > 50.1 µM | > 50.1 µM | > 50.1 µM | ~11.2 µM | ~11.2 µM |  |  |
| OCc1cc(C(O)CNCCCCCCOCCCCc2ccccc2)ccc1O (stereo unspecified) [SALMETEROL] | > 100 µM | > 100 µM | 18.6 µM | 18.6 µM | 19.1 µM | 19.1 µM |  |  |
| CCC(C)n1ncn(-c2ccc(N3CCN(c4ccc(OC[C@H]5CO[C@](Cn6cncn6)(c6ccc(F)cc6F)O5)cc4)CC3)cc2)c1=O (stereo partly specified) [SAPERCONAZOLE] | > 100 µM | > 100 µM | > 100 µM | > 100 µM | > 100 µM | > 100 µM |  |  |
| Cc1ccc(C(=O)N(CCCN)[C@@H](c2oc3cc(Cl)ccc3c(=O)c2Cc2ccccc2)C(C)C)cc1 [SB-743921] | > 50.1 µM | > 50.1 µM | 2.63 µM | 2.63 µM | > 50.1 µM | > 50.1 µM |  |  |

| SMILES | IC50 (SARS-CoV-2 [1]; read-out: IC50) | IC50 (SARS-CoV-2 [1]; read-out: pIC50 (converted)) | CC50 at 48 h (in vitro; [3]) | CC50 at 48 h (in vitro; [4]) | IC50 (SARS-CoV-2 [2]) | IC50 (SARS-CoV-2 [2]; read-out: pIC50 (converted)) | CC50 at 48 h (in vitro; vero c1008, CC50) | CC50 at 48 h (in vitro; vero c1008, pCC50) |
| --- | --- | --- | --- | --- | --- | --- | --- | --- |
| Cc1nc2ccccn2c(=O)c1CCN1CCC(=C(c2ccc(F)cc2)c2ccc(F)cc2)CC1 [SEGANSERIN] | > 100 µM | > 100 µM | 10.2 µM | 10.2 µM | 7.59 µM | 7.59 µM |  |  |
| CCN(CC)CCNC(=O)c1ccc(NS(C)(=O)=O)cc1 [SEMATILIDE] | > 100 µM | > 100 µM | > 100 µM | > 100 µM | 3.89 µM | 3.89 µM |  |  |
| NCC[C@H](Oc1ccc(C(F)(F)F)cc1)c1ccccc1 [SEPROXETINE] | > 100 µM | > 100 µM | 10.6 µM | 10.5 µM | 7.59 µM | 7.59 µM |  |  |
| Cc1c(CN2CCN(c3cccc(C(F)(F)F)c3)CC2)cc(-c2ccccc2)n1NC(=O)c1ccncc1 [SUDOTERB] | > 100 µM | > 100 µM | ~14.3 µM | ~14.1 µM | > 100 µM | > 100 µM |  |  |
| Cc1cc2cc(Oc3ccnc(Nc4cccc(CS(=O)(=O)NCCN(C)C)c4)n3)ccc2[nH]1 [SURUFATINIB] | > 50.1 µM | > 50.1 µM | 4.9 µM | 4.9 µM | > 10 µM | > 10 µM |  |  |
| COc1cc2c(N3CCN(C(=O)Nc4ccc(OC(C)C)cc4)CC3)ncnc2cc1OCCCN1CCCCC1 [TANDUTINIB] | > 100 µM | > 100 µM | 11.5 µM | 11.5 µM | > 100 µM | > 100 µM |  |  |
| CN1CCC(COc2cnc(-c3cccc(Cn4nc(-c5cccc(C#N)c5)ccc4=O)c3)nc2)CC1 [TEPOTINIB] | > 100 µM | > 100 µM | 5.75 µM | 5.75 µM | > 100 µM | > 100 µM |  |  |
| CC(C)N1CCN(c2ccc(OCC3COC(Cn4cncn4)(c4ccc(Cl)cc4Cl)O3)cc2)CC1 (stereo unspecified) [TERCONAZOLE] | > 12.6 µM | > 12.6 µM | ~10 µM | ~10 µM | 16.6 µM | 16.6 µM |  |  |
| CC(C)(C)c1ccc(C(O)CCCN2CCC(C(O)(c3ccccc3)c3ccccc3)CC2)cc1 (stereo unspecified) [TERFENADINE] | > 100 µM | > 100 µM | ~5.13 µM | ~5.13 µM | > 100 µM | > 100 µM |  |  |
| Cc1c(-c2ccccc2)oc2c(C(=O)OC(C)(C)CN3CCCCC3)cccc2c1=O [TERFLAVOXATE] | > 100 µM | > 100 µM | ~63.1 µM | ~63.1 µM | > 100 µM | > 100 µM |  |  |
| CN1CCN(CCCN2c3ccccc3Sc3ccc(S(=O)(=O)N(C)C)cc32)CC1 [THIOPROPERAZINE] | > 100 µM | > 100 µM | 6.31 µM | 6.31 µM | 13.2 µM | 13.2 µM |  |  |
| CN1CCN(CC/C=C2/c3ccccc3Sc3ccc(S(=O)(=O)N(C)C)cc32)CC1 [THIOTHIXENE] | 5.75 µM | 5.75 µM | 4.96 µM | 4.9 µM | > 100 µM | > 100 µM |  |  |
| CCCSc1ccccc1N1CCN(CCCCn2c(=O)[nH]c3ccccc3c2=O)CC1 [TIOPERIDONE] | > 100 µM | > 100 µM | 7.24 µM | 7.24 µM | 9.12 µM | 9.12 µM |  |  |
| O=C1CC2(CCCC2)CC(=O)N1CCCCN1CCN(c2nsc3ccccc23)CC1 [TIOSPIRONE] | > 100 µM | > 100 µM | 24.6 µM | 24.5 µM | > 100 µM | > 100 µM |  |  |
| Cn1cncc1[C@@](N)(c1ccc(Cl)cc1)c1ccc2c(c1)c(-c1cccc(Cl)c1)cc(=O)n2C [TIPIFARNIB] | > 100 µM | > 100 µM | 13.3 µM | 13.2 µM | > 100 µM | > 100 µM |  |  |
| CC(C)CN(C[C@@H](O)[C@H](Cc1ccccc1)NC(=O)O[C@H]1CO[C@H]2OCC[C@H]21)S(=O)(=O)c1ccc2nc(NC3CCN(C4CCCC4)CC3)sc2c1 [TMC 310911] | ~9.55 µM | ~9.55 µM | ~13 µM | ~12.9 µM | 3.94 µM | 3.89 µM |  |  |
| Cc1cc(C)c2nc(-c3cnc(NCCCC4CCN(C)CC4)nc3C)[nH]c2c1 [TOREFORANT] | > 50.1 µM | > 50.1 µM | 22.4 µM | 22.4 µM | > 25.1 µM | > 25.1 µM |  |  |
| CCOC1O[C@H]([C@@H](COCc2ccccc2)OCc2ccccc2)[C@H](OCc2ccccc2)[C@H]1O (stereo partly specified) [TRIBENOSIDE] | > 50.1 µM | > 50.1 µM | 17.4 µM | 17.4 µM | > 50.1 µM | > 50.1 µM |  |  |

Reference: ChEMBL document CHEMBL4651402, “Screening of ~5500 FDA-approved drugs and clinical candidates for anti-SARS-CoV-2 activity” (2021)
